“And” between values parts separate entries of the source, which are not always exact repeats. Identical values can stand only once. Marks after values point to notes of the source that are not given here.
Columns and labels:
db/db mice [1] = assay: Antihyperglycemic activity in db/db mice; type: in vivo, mouse; settings: for % Fall in blood glucose levels, 6 days: day 6; for % Fall in blood glucose levels, 10 days: day 10
Source text: (§1) The db/db mouse is a well-characterized model of type II diabetes. The background for the db/db mouse is the C57BL/Ks strain. The major deficiency of the C57BL/KsBom-db mouse (db/db) is lack of a functional leptin receptor. This leads to defective leptin signaling and a complete lack of feedback from leptin. […] The db/db mouse develops NIDDM from around week 10. The disease is stable until week 20, where destruction of pancreatic β-cells can be recognized clinically as decreasing levels of plasma insulin and very severe hyperglycemia. The male mice are more diabetic than female and will normally die earlier. The advantage of using male mice for experimental purposes is that the fluctuations in plasma parameters are less than in the females where the estrogen cycles affects the clinical diabetes mellitus. The optimal age of db/db mice used for experiments will be from week 12 to 18 when they have developed NIDDM with diabetic dyslipidemia but still have functional β-cells in the pancreas. C57BL/KsBom-db mice 12-18 weeks, 40-50 g bred in the animal house of CDRI, Lucknow. 10 male mice were used in the experiments. The mice were housed in groups of 5 individuals in a room controlled for temperature (23+2° C.) and 12/12 hours light/dark cycle (lights on at 6.00 am). Body weight was measured daily from day 1 to day 10. All animals had free access to fresh water and to normal chow except on the days of the postprandial protocol day 6 and during the overnight fast before the OGTT on day 10. Blood glucose was checked every morning up till day 5. On day 6 postprandial protocol was employed, in this method blood glucose was checked at −0.30 min and 0 h. Test compounds were given to the treatment group whereas control group received only gum acacia (1.0%); the blood glucose was again checked at 1, 2, 3, 4 and 6 h post test compound treatment. Finally on day 10 an oral glucose tolerance test (OGTT) was performed after an overnight fasting. Blood glucose was measured at −0.30 min and test drugs were fed, blood glucose was again measured at 0.0 min post treatment, at this juncture glucose solution was given at a dose of 3 gm/kg to all the groups including control group; the profile of blood glucose was checked at 30 min, 60 min, 90 min and 120 min post glucose administration. Quantitative glucose tolerance of each animal was calculated by Area Under Curve (AUC) method (Prism Software). Comparing the AUC of experimental and control groups determined the percentage antihyperglycemic activity. Statistical comparison was made by Dunnett's test.

[2] = tested on: streptozotocin-induced diabetic rats; assay: Sucrose-challenged streptozotocin-induced diabetic rats (STZ-S); type: in vivo, rat; settings: for % Fall in blood glucose levels, STZ-S 5 h / % Fall in blood glucose levels, STZ-S 24 h: 100 mg/kg oral
Experimental: Male albino rats of Sprague Dawley strain of body weight 160+20 g were selected for this study. Streptozotocin (Sigma, USA) was dissolved in 100 mM citrate buffer pH 4.5 and calculated amount of the fresh solution was injected to overnight fasted rats (45 mg/kg) intraperitoneally. Blood glucose level was checked 48 h later by glucostrips and animals showing blood glucose values between 144 to 270 mg/dl (8 to 15 mM) were included in the experiment and termed diabetic. The diabetic animals were divided into groups consisting of five to six animals in each group. Animals of experimental groups were administered suspension of the desired test samples orally (made in 1.0% gum acacia) at a dose of 100-mg/kg-body weight. Animals of control group were given an equal amount of 1.0% gum acacia. A sucrose load of 2.5-g/kg body weight was given after 30 minutes of compound administration. After 30 minutes of post sucrose load blood glucose level was again checked by glucostrips at 30, 60, 90, 120, 180, 240, 300 min and at 24 h, respectively. Animals not found diabetic after 24 hours post treatment of the test sample were not considered and omitted from the calculations and termed as non-responders. […] Food but not water was withheld from the cages during the experimentation. Comparing the AUC of experimental and control groups determined the percent antihyperglycemic activity. Statistical comparison between groups was made by Student's ‘t’ test.
As depicted in the FIGURE, a dose response curve of 34 was obtained by administering different doses of test compound to streptozotocin-induced diabetic rats (Table 6). […]

sucrose loaded rat = assay: Sucrose loaded rat model (SLM), antihyperglycemic activity; type: in vivo; settings: for inhibition in vivo at 100 mg/kg: Rattus norvegicus, po, 2 h, read-out: % Fall in blood glucose levels, SLM
Experimental: Male albino rats of Charles Foster/Wistar strain of average body weight 160±20 g were selected for this study. The blood glucose level of each animal was checked by glucometer using glucostrips (Boehringer Mannheim) after 16 h starvation. Animals showing blood glucose levels between 3.33 to 4.44 mM (60 to 80 mg/dl) were divided into groups of five to six animals in each. Animals of experimental group were administered suspension of the desired synthetic compound orally (made in 1.0% gum acacia) at a dose of 100-mg/kg-body weight. Animals of control group were given an equal amount of 1.0% gum acacia. A sucrose load (10.0 g/kg) was given to each animal orally exactly after 30 min post administration of the test sample/vehicle. Blood glucose profile of each rat was again determined at 30, 60, 90 and 120 min post administration of sucrose by glucometer. Food but not water was withheld from the cages during the course of experimentation. Quantitative glucose tolerance of each animal was calculated by Area Under Curve (AUC) method (Prism Software). Comparing the AUC of experimental and control groups determined the percentage antihyperglycemic activity. Statistical comparison was made by Dunnett's test.

db/db mice [3] = assay: Antidyslipidemic activity in db/db mice; type: in vivo, mouse; settings: for % Fall in lipid levels HDL: HDL-cholesterol; for % Fall in lipid levels HDL / % Fall in lipid levels Chol.: + marks a rise; for % Fall in lipid levels Chol.: cholesterol; for % Fall in lipid levels TG: triglycerides
Source text: as §1
Cholesterol and triglycerides were estimated using the same procedures as given above.
HDL-Cholesterol was estimated using the kit provided by the Roche Diagnostics. Cholestest N HDL is a liquid reagent that directly measures the HDL-cholesterol concentration in serum by a new method that is based on the selective solubilising effect of proprietary detergent to the different lipoproteins. In the assay system, only HDL is solubilised by a special detergent; other lipoproteins are not disrupted. After HDL is selectively disrupted, HDL cholesterol is measured enzymatically (Gordon, T.; Casstelli, W. P.; Hjortland, M. C.; Kannel, W. B.; Dawber, T. R. High density lipoproteins as a protective factor against coronary heart disease, Am. J. Med. 1977, 62, 707-714.).

Compound	% Fall in blood glucose levels, 6 days (db/db mice [1]) [%]	% Fall in blood glucose levels, 10 days (db/db mice [1])	% Fall in blood glucose levels, STZ-S 5 h [2]	% Fall in blood glucose levels, STZ-S 24 h [2]	inhibition in vivo at 100 mg/kg (sucrose loaded rat) [%]	% Fall in lipid levels HDL (db/db mice [3])	% Fall in lipid levels Chol. (db/db mice [3])	% Fall in lipid levels TG (db/db mice [3]) [%]	also measured
CC(C)NCC(O)COc1ccc2c(=O)cc(-c3cc(O)cc(O)c3)oc2c1 (centres unmarked) [Compound 49, 3′,5′-Dihydroxy-7-(2-hydroxy-3-iso-propylamino-propoxy)-flavone]	9.38	20.8% and 20.5%	26.9** %	13.2* %	29	+12.7%	17.2%	24.1	
COc1cc(-c2cc(=O)c3ccc(OCCCOc4ccc(C=C5SC(=O)NC5=O)cc4)cc3o2)cc(OC)c1OC [Compound 65, 7-{3-[4-(thiazolidin-2,4-dione-5-ylidinemethyl)-phenoxy]-propoxy}-3′,4′,5′-trimethoxy-flavone]	19.1	21.4%	16.1%	11.0%		35.2%	1.06%	19.1	% Fall in blood glucose levels, SLM (sucrose loaded rat; 100 mg/kg oral, AUC vs control): 29.30%; Antihyperglycemic (glucose lowering) activity in words (sucrose loaded rat; SLM as well as STZ model): significant and consistent glucose lowering activity
CC(C)(C)NCC(O)COc1ccc2c(=O)cc(-c3cc(OCc4ccccc4)cc(OCc4ccccc4)c3)oc2c1 (centres unmarked) [Compound 34, 7-(3-tert-Butylamino-2-hydroxy-propoxy)-3′,5′-dibenzyloxy-flavone]	26.4	57.1%	21.6** %	28.7** %	29.4	+19.3%	+26.9%	33.5	% Fall in blood glucose levels 5 h ([2]; Dose 25, 5 h): 11.1%; % Fall in blood glucose levels 24 h ([2]; Dose 25, 24 h): 13.6%; % Fall in blood glucose levels 5 h ([2]; Dose 50, 5 h): 9.62%; % Fall in blood glucose levels 24 h ([2]; Dose 50, 24 h): 13.8%; % Fall in blood glucose levels 5 h ([2]; Dose 100, 5 h): 19.8%; % Fall in blood glucose levels 24 h ([2]; Dose 100, 24 h): 21.9%; % Fall in blood glucose levels 5 h ([2]; Dose 150, 5 h): 24.3%; % Fall in blood glucose levels 24 h ([2]; Dose 150, 24 h): 30.5%; % Fall in blood glucose levels 5 h ([2]; Dose 200, 5 h): 38.1%; % Fall in blood glucose levels 24 h ([2]; Dose 200, 24 h): 37.0%; % Fall in blood glucose levels 5 h ([2]; Dose 250, 5 h): 40.7%; % Fall in blood glucose levels 24 h ([2]; Dose 250, 24 h): 45.5%; ED50 ([2]; Rattus norvegicus, STZ-S model, dose response): 90 mg/kg

From patent US7635779B2, “Oxy substituted flavones as antihyperglycemic and antidyslipidemic agents” (Council of Scientific & Industrial Research, priority 2004, dated 2009)
